{
  "source": "patent US11639350B2",
  "about": "“Heteroaryldihydropyrimidine derivatives and methods of treating hepatitis B infections” (Janssen Pharmaceutica NV, priority 2018, dated 2023)",
  "key": {"HBV": {"system": "HBV", "assay": "HBV inhibitory activity: HBV DNA in the culture medium of HepG2.2.15 cells by q-PCR", "assay_type": "cell-based", "settings": "HepG2.2.15 cells, 6 days of compound treatment, HBV DNA in culture medium by q-PCR, highest concentration 10 μM, read-out: EC50", "method_in_brief": "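Supernatant HBV DNA quantified by q-PCR after a 6-day compound exposure, with one mid-course medium change, of HepG2.2.15 cells (stably integrated HBV; 40,000 per well, 2% FBS). Eight-point 3-fold series topped at 10 μM for antiviral EC50; separate plates of 5,000 cells per well with 100 μM top give CC50.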"}, "[1]": {"assay": "Cytotoxicity determination in HepG2.2.15 cells (CCK-8)", "assay_type": "cell-based", "settings": "human, 6 days of compound treatment, CCK-8, highest concentration 100 μM", "method_in_brief": "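CC50 is from CCK-8 absorbance (450 nm, 630 nm reference) after 2.5 h with reagent. Before that, compounds were applied for six days, top concentration 100 μM, eight threefold dilutions, one mid-course medium change, to stably HBV-integrated HepG2.2.15 cells plated at 5,000/well in 2% FBS.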"}, "[2]": {"settings": "Hepatitis B virus, HepG2.2.15, 144 h"}},
  "note": "Where two headings read alike, the source gives them in different places.",
  "data": [
    {"smiles": "COC(=O)C1=C([C@H]2CC[C@H](C(=O)O)CC2)NC(c2nccs2)=NC1c1ccc(F)cc1Cl", "note": "(single isomer, unassigned) [Compound 19, trans-4-(6-(2-Chloro-4-fluorophenyl)-5-(methoxycarbonyl)-2-(thiazol-2-yl)-3,6-dihydropyrimidin-4-yl)cyclohexanecarboxylic Acid]", "values": [
      {"measurement": "EC50", "setting": "HBV; [2]", "result": 62, "unit": "nM"},
      {"measurement": "CC50 at 6 days", "setting": "[1]", "result": 8700, "unit": "nM"}
    ]},
    {"smiles": "COC(=O)C1=C([C@H]2CC[C@H](C(=O)O)CC2)NC(c2nccs2)=NC1c1ccc(F)c(F)c1Br", "note": "(stereo partly drawn) [Compound 229B, (trans)-4-(6-(2-Bromo-3,4-difluorophenyl)-5-(methoxycarbonyl)-2-(thiazol-2-yl)-3,6-dihydropyrimidin-4-yl)cyclohexane-carboxylic Acid]", "values": [
      {"measurement": "EC50", "setting": "HBV; [2]", "result": 11, "unit": "nM"},
      {"measurement": "CC50 at 6 days", "setting": "[1]", "result": 32100, "unit": "nM"}
    ]},
    {"smiles": "COC(=O)C1=C(C2CCN(C(=O)CNC(=O)OC(C)(C)C)CC2)NC(c2nccs2)=NC1c1ccc(F)cc1Cl", "note": "(centres unmarked) [Compound 129, 6-[1-(2-tert-Butoxycarbonylamino-acetyl)-piperidin-4-yl]-4-(2-chloro-4-fluoro-phenyl)-2-thiazol-2-yl-1,4-dihydro-pyrimidine-5-carboxylic Acid Methyl Ester]", "values": [
      {"measurement": "EC50", "setting": "HBV; [2]", "result": 55, "unit": "nM"},
      {"measurement": "CC50 at 6 days", "setting": "[1]", "result": 28200, "unit": "nM"}
    ]},
    {"smiles": "COC(=O)C1=C([C@H]2CC[C@@H](NS(C)(=O)=O)CC2)NC(c2nccs2)=NC1c1ccc(F)cc1Cl", "note": "(single isomer, unassigned) [Compound 128D, Methyl 4-(2-chloro-4-fluorophenyl)-6-(cis-4-(methylsulfonamido)-cyclohexyl)-2-(thiazol-2-yl)-1,4-dihydropyrimidine-5-carboxylate]", "values": [
      {"measurement": "EC50", "setting": "HBV; [2]", "result": 17, "unit": "nM"},
      {"measurement": "CC50 at 6 days", "setting": "[1]", "result": 22800, "unit": "nM"}
    ]},
    {"smiles": "COC(=O)C1=C(C2CCOCC2)NC(c2nccs2)=NC1c1ccc(F)cc1Cl", "note": "(single isomer, unassigned) [Compound 51B, Methyl 4-(2-chloro-4-fluorophenyl)-6-(tetrahydro-2H-pyran-4-yl)-2-(thiazol-2-yl)-1,4-dihydropyrimidine-5-carboxylate]", "values": [
      {"measurement": "EC50", "setting": "HBV; [2]", "result": 467, "unit": "nM"},
      {"measurement": "CC50 at 6 days", "setting": "[1]", "result": "> 100000", "unit": "nM"}
    ]},
    {"smiles": "COC(=O)C1=C(C2CCN(S(=O)(=O)CCC(N)=O)CC2)NC(c2nccs2)=NC1c1ccc(F)cc1Cl", "note": "(centres unmarked) [Compound 457, Methyl 6-(1-((3-amino-3-oxopropyl)sulfonyl)piperidin-4-yl)-4-(2-chloro-4-fluorophenyl)-2-(thiazol-2-yl)-1,4-dihydropyrimidine-5-carboxylate]", "values": [
      {"measurement": "EC50", "setting": "HBV; [2]", "result": 54, "unit": "nM"},
      {"measurement": "CC50 at 6 days", "setting": "[1]", "result": 63400, "unit": "nM"}
    ]},
    {"smiles": "COC(=O)C1=C(C2CCN(S(=O)(=O)[C@H]3CC[C@H](CC(=O)O)CC3)CC2)NC(c2nccs2)=NC1c1ccc(F)cc1Cl", "note": "(relative stereo) [Compound 476A, (trans)-2-(4-((4-(6-(2-Chloro-4-fluorophenyl)-5-(methoxycarbonyl)-2-(thiazol-2-yl)-3,6-dihydropyrimidin-4-yl)piperidin-1-yl)sulfonyl)cyclohexyl)acetic Acid]", "values": [
      {"measurement": "EC50", "setting": "HBV; [2]", "result": 14, "unit": "nM"},
      {"measurement": "CC50 at 6 days", "setting": "[1]", "result": 30400, "unit": "nM"}
    ]},
    {"smiles": "COC(=O)C1=C(C23CC(N(C[C@@H](O)CO)S(C)(=O)=O)(C2)C3)NC(c2nccs2)=NC1c1ccc(F)cc1Cl", "note": "(single isomer, unassigned) [Compound 376C]", "values": [
      {"measurement": "EC50", "setting": "HBV", "result": 75, "unit": "nM"},
      {"measurement": "CC50 at 6 days", "setting": "[1]", "result": 95000, "unit": "nM"}
    ]},
    {"smiles": "COC(=O)C1=C(C2CCN(C(=O)C3CC3)CC2)NC(c2nccs2)=NC1c1ccc(F)cc1Cl", "note": "(centres unmarked) [Compound 102, Methyl 4-(2-chloro-4-fluorophenyl)-6-(1-(cyclopropanecarbonyl)-piperidin-4-yl)-2-(thiazol-2-yl)-1,4-dihydropyrimidine-5-carboxylate]", "values": [
      {"measurement": "EC50", "setting": "HBV; [2]", "result": 130, "unit": "nM"},
      {"measurement": "CC50 at 6 days", "setting": "[1]", "result": 57000, "unit": "nM"}
    ]},
    {"smiles": "COC(=O)C1=C(C2CCOCC2)NC(c2nccs2)=NC1c1cccc(F)c1Cl", "note": "(single isomer, unassigned) [Compound 50B, 4-(2-Chloro-3-fluoro-phenyl)-6-(tetrahydro-pyran-4-yl)-2-thiazol-2-yl-1,4-dihydro-pyrimidine-5-carboxylic acid methyl ester]", "values": [
      {"measurement": "EC50", "setting": "HBV; [2]", "result": 270, "unit": "nM"},
      {"measurement": "CC50 at 6 days", "setting": "[1]", "result": 35600, "unit": "nM"}
    ]}
  ]
}
